Common to all, as to type: cell-based
The subject of assay [1] is IL-23 Kit225 Reporter (Kit225 T cells with a stably-integrated STAT-dependent luciferase reporter, stimulated with IL-23). Briefly: Kit225 T Cell Assay, IL-23-stimulated STAT-dependent luciferase reporter. The settings on record: 20 ng/mL human recombinant IL-23, 5-6 hours, luciferase expression. The protocol: (§1) Kit225 T cells with a stably-integrated STAT-dependent luciferase reporter were plated in RPMI (Gibco) containing 10% heat-inactivated FBS (Gibco) and 100 U/mL PenStrep (Gibco). The cells were then stimulated with either 20 ng/mL human recombinant IL-23 or 200 U/mL human recombinant IFNα (PBL InterferonSource) for 5-6 hours. Luciferase expression was measured using the STEADY-GLO® Luciferase Assay System (Promega) according to the manufacturer's instructions. Inhibition data were calculated by comparison to no inhibitor control wells for 0% inhibition and non-stimulated control wells for 100% inhibition. Dose response curves were generated to determine the concentration required to inhibit 50% of cellular response (IC50) as derived by non-linear regression analysis.
For orientation: A reporter such as luciferase makes a cellular process visible.

Assay [2] has as its system IFNα Kit225 Reporter (Kit225 T cells with a stably-integrated STAT-dependent luciferase reporter, stimulated with IFNα). Briefly: Kit225 T Cell Assay, IFNα-stimulated STAT-dependent luciferase reporter. The conditions noted are these: 200 U/mL human recombinant IFNα, 5-6 hours, luciferase expression. The protocol:
as §1

A short description of assay [3]: Kit225 T Cell Assay, IL-23-stimulated STAT-dependent luciferase reporter. The settings on record: Kit225 T cells, 20 ng/mL human recombinant IL-23, 5-6 hours, luciferase expression. The protocol: as §1

As to `N#Cc1cnc2c(Nc3ccc(C(=O)N4[C@H]5CC[C@@H]4CC5)c(OCC(F)F)n3)cc(NC3CCOCC3)nn12` [Example 46, 8-{[6-(2,2-difluoroethoxy)-5-[(1s,4s)-7-azabicyclo[2.2.1]heptane-7-carbonyl]pyridin-2-yl]amino}-6-[(oxan-4-yl)amino]imidazo[1,2-b]pyridazine-3-carbonitrile], the IC50 in assay [1] came out at 60 nM; in assay [2], 360 nM.

On to `CN(C)C1CCN(C(=O)c2ccc(Nc3cc(NC4CCOCC4)nn4c(C#N)cnc34)nc2OCC(F)F)C1` (stereo not shown) [Example 48, 8-{[6-(2,2-difluoroethoxy)-5-[3-(dimethylamino)pyrrolidine-1-carbonyl]pyridin-2-yl]amino}-6-[(oxan-4-yl)amino]imidazo[1,2-b]pyridazine-3-carbonitrile], for which the IC50 worked out at 740 nM in assay [3] and 340 nM in assay [2].

`N#Cc1cnc2c(Nc3ccc(C(=O)N4CCCC4C(F)(F)F)c(OCC(F)F)n3)cc(NC3CCOCC3)nn12` (stereo not shown) [Example 49, 8-{[6-(2,2-difluoroethoxy)-5-[2-(trifluoromethyl)pyrrolidine-1-carbonyl]pyridin-2-yl]amino}-6-[(oxan-4-yl)amino]imidazo[1,2-b]pyridazine-3-carbonitrile]: the IC50 came to 160 nM in assay [3] and 220 nM in assay [2].

Regarding `CC(=O)NCc1ccc(-c2cccc(Nc3cc(NC4CCOCC4)nn4c(C#N)cnc34)n2)cc1` [Example 50, N-({4-[6-({3-cyano-6-[(oxan-4-yl)amino]imidazo[1,2-b]pyridazin-8-yl}amino)pyridin-2-yl]phenyl}methyl)acetamide], the IC50 in assay [3] turned out to be 1100 nM; in assay [2], 760 nM.

For the molecule `N#Cc1cnc2c(Nc3ccc(C(=O)NCC4CC4)cn3)cc(NCC3CC3)nn12` [Example 51, 6-({3-cyano-6-[(cyclopropylmethyl)amino]imidazo[1,2-b]pyridazin-8-yl}amino)-N-(cyclopropylmethyl)pyridine-3-carboxamide], the IC50 in assay [3] amounted to 150 nM; in assay [2], 160 nM.

As for `CC(C)(C)NC(=O)c1ccc(Nc2cc(NCC3CC3)nn3c(C#N)cnc23)nc1` [Example 52, N-tert-butyl-6-({3-cyano-6-[(cyclopropylmethyl)amino]imidazo[1,2-b]pyridazin-8-yl}amino)pyridine-3-carboxamide], the IC50 in assay [3] turned out to be 140 nM; in assay [2] it was 80 nM.

With `N#Cc1cnc2c(Nc3ccc(C(=O)N[C@@H]4CCC[C@@H]4O)cn3)cc(NCC3CC3)nn12` [Example 53, 6-({3-cyano-6-[(cyclopropylmethyl)amino]imidazo[1,2-b]pyridazin-8-yl}amino)-N-[(1R,2S)-2-hydroxycyclopentyl]pyridine-3-carboxamide], the IC50 turned out to be 240 nM in assay [3] and 140 nM in assay [2].

On to `CC(C)N1CCN(c2cccc(Nc3cc(N[C@@H]4CCCC[C@H]4O)nn4c(C#N)cnc34)n2)CC1` [Example 54, 6-{[(1R,2R)-2-hydroxycyclohexyl]amino}-8-({6-[4-(propan-2-yl)piperazin-1-yl]pyridin-2-yl}amino)imidazo[1,2-b]pyridazine-3-carbonitrile], for which the IC50 in assay [3] is 630 nM; in assay [2], 880 nM.

In the case of `N#Cc1cnc2c(Nc3cccc(N4CCN(CCO)CC4)n3)cc(N[C@@H]3CCCC[C@H]3O)nn12` [Example 55, 6-{[(1R,2R)-2-hydroxycyclohexyl]amino}-8-({6-[4-(2-hydroxyethyl)piperazin-1-yl]pyridin-2-yl}amino)imidazo[1,2-b]pyridazine-3-carbonitrile], the figures for the IC50 in assay [3] and in assay [2] were 530 nM and 620 nM, respectively.

`N#Cc1cnc2c(Nc3cccc(N4CCOCC4=O)n3)cc(N[C@@H]3CCCC[C@H]3O)nn12` [Example 56, 6-{[(1R,2R)-2-hydroxycyclohexyl]amino}-8-{[6-(3-oxomorpholin-4-yl)pyridin-2-yl]amino}imidazo[1,2-b]pyridazine-3-carbonitrile]: the IC50 was determined as 430 nM in assay [3] and 380 nM in assay [2].

Take `CCC1(C)NC(=O)N(c2cccc(Nc3cc(N[C@@H]4CCCC[C@H]4O)nn4c(C#N)cnc34)n2)C1=O` (stereo partly drawn) [Example 57, 8-{[6-(4-ethyl-4-methyl-2,5-dioxoimidazolidin-1-yl)pyridin-2-yl]amino}-6-{[(1R,2R)-2-hydroxycyclohexyl]amino}imidazo[1,2-b]pyridazine-3-carbonitrile]: the half-maximal inhibitory concentration (IC50) in assay [3] was determined as 920 nM; in assay [2], 750 nM.

For `N#Cc1cnc2c(Nc3cccc(N4C(=O)NC5(CCCCC5)C4=O)n3)cc(N[C@@H]3CCCC[C@H]3O)nn12` [Example 58, 8-[(6-{2,4-dioxo-1,3-diazaspiro[4.5]decan-3-yl}pyridin-2-yl)amino]-6-{[(1R,2R)-2-hydroxycyclohexyl]amino}imidazo[1,2-b]pyridazine-3-carbonitrile], the IC50 in assay [3] turned out to be 550 nM; in assay [2], 810 nM.

Regarding `N#Cc1cnc2c(Nc3cccc(N4CCCCCC4=O)n3)cc(N[C@@H]3CCCC[C@H]3O)nn12` [Example 59, 6-{[(1R,2R)-2-hydroxycyclohexyl]amino}-8-{[6-(2-oxoazepan-1-yl)pyridin-2-yl]amino}imidazo[1,2-b]pyridazine-3-carbonitrile], the IC50 in assay [3] is 660 nM; in assay [2] it was 930 nM.

As to `CC(C)C(=O)N1CCN(c2cccc(Nc3cc(N[C@@H]4CCCC[C@H]4O)nn4c(C#N)cnc34)n2)CC1` [Example 60, 6-{[(1R,2R)-2-hydroxycyclohexyl]amino}-8-({6-[4-(2-methylpropanoyl)piperazin-1-yl]pyridin-2-yl}amino)imidazo[1,2-b]pyridazine-3-carbonitrile], the concentration for half-maximal inhibition (IC50) in assay [3] turned out to be 350 nM; in assay [2] it was 370 nM.

Consider `N#Cc1cnc2c(Nc3cccc(-n4cccn4)n3)cc(N[C@@H]3CCCC[C@H]3O)nn12` [Example 61, 6-{[(1R,2R)-2-hydroxycyclohexyl]amino}-8-{[6-(1H-pyrazol-1-yl)pyridin-2-yl]amino}imidazo[1,2-b]pyridazine-3-carbonitrile], for which the concentration for half-maximal inhibition (IC50) in assay [3] amounted to 940 nM; in assay [2] it was 450 nM.

As for `CN1CCN(c2cccc(Nc3cc(N[C@@H]4CCCC[C@H]4O)nn4c(C#N)cnc34)n2)CC1` [Example 62, 6-{[(1R,2R)-2-hydroxycyclohexyl]amino}-8-{[6-(4-methylpiperazin-1-yl)pyridin-2-yl]amino}imidazo[1,2-b]pyridazine-3-carbonitrile], the results for the IC50 in assay [3] and in assay [2] were 290 nM and 200 nM, respectively.

Consider `CS(=O)(=O)N1CCN(c2cccc(Nc3cc(N[C@@H]4CCCC[C@H]4O)nn4c(C#N)cnc34)n2)CC1` [Example 63, 6-{[(1R,2R)-2-hydroxycyclohexyl]amino}-8-{[6-(4-methanesulfonylpiperazin-1-yl)pyridin-2-yl]amino}imidazo[1,2-b]pyridazine-3-carbonitrile], for which the IC50 in assay [3] is 110 nM; in assay [2], 550 nM.

For the molecule `CC(=O)N1CCN(c2cccc(Nc3cc(N[C@@H]4CCCC[C@H]4O)nn4c(C#N)cnc34)n2)CC1` [Example 64, 8-{[6-(4-acetylpiperazin-1-yl)pyridin-2-yl]amino}-6-{[(1R,2R)-2-hydroxycyclohexyl]amino}imidazo[1,2-b]pyridazine-3-carbonitrile], the IC50 in assay [3] was found to be 350 nM; in assay [2], 500 nM.

On to `N#Cc1cnc2c(Nc3cccc(N4CCOCC4)n3)cc(N[C@@H]3CCCC[C@H]3O)nn12` [Example 65, 6-{[(1R,2R)-2-hydroxycyclohexyl]amino}-8-{[6-(morpholin-4-yl)pyridin-2-yl]amino}imidazo[1,2-b]pyridazine-3-carbonitrile], for which the IC50 in assay [3] is 550 nM; in assay [2], 110 nM.

Take `N#Cc1cnc2c(Nc3cccc(N)n3)cc(N[C@@H]3CCCC[C@H]3O)nn12` [Example 66, 8-[(6-aminopyridin-2-yl)amino]-6-{[(1R,2R)-2-hydroxycyclohexyl]amino}imidazo[1,2-b]pyridazine-3-carbonitrile]: the half-inhibitory concentration (IC50) came out at 710 nM in assay [3] and 340 nM in assay [2].

What is called IC50 is the concentration at which inhibition is half-maximal.

Values taken from patent publication US12473290B2, “Imidazopyridazine compounds useful as modulators of IL-12, IL-23 and/or IFN alpha responses” (BRISTOL-MYERS SQUIBB COMPANY, priority 2019, dated 2025).
